Drawing on PubChem BioAssay (NCI), this text covers GI50 and TGI for seven compounds.

Among the test systems are A498 renal; HCT-116 colon; M14 melanoma; NCI-H226 lung; NCI/ADR-RES ovarian; OVCAR-4 ovarian; PC-3 prostate; SK-MEL-2 melanoma; SNB-19 CNS; TK-10 renal.
Test in all cases: NCI-60 cell line screen, 48 h

Where “and” joins values, the source holds several entries; their conditions need not be identical. Identical values can stand only once.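 Grown in 96-well plates, cells were treated for 48 hours with each compound at five concentrations. Insufficient inhibition: endpoint recorded as highest concentration tested. Here, GI50 denotes the concentration required for 50% inhibition of growth. TGI denotes the concentration required for complete inhibition of growth.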

In the case of `CC[C@@]1(OC(=O)CN)C(=O)OCc2c1cc1n(c2=O)Cc2cc3c(N)c4c(cc3nc2-1)OCO4`, the GI50 in the test with A498 renal is 2.26 nM; in the test with HCT-116 colon it was 0.318 nM; in the test on M14 melanoma, less than 0.1 nM; with NCI-H226 lung it was less than 0.1 nM; with NCI/ADR-RES ovarian it was 0.145 nM; in the test on OVCAR-4 ovarian, 50.7 nM and 38.6 nM. Also, the GI50 in the test with PC-3 prostate is 36.1 nM and 32.2 nM; in the test with SK-MEL-2 melanoma, 22.6 nM; with SNB-19 CNS, 0.124 nM; with TK-10 renal, 16.7 nM and 104 nM. The TGI is 66.1 nM with A498 renal; more than 100000 nM in the test on HCT-116 colon; 13.9 nM with M14 melanoma; 109 nM and 27.9 nM in the test on NCI-H226 lung; 19.3 nM in the test with NCI/ADR-RES ovarian; 356 nM and 658 nM in the test on OVCAR-4 ovarian. Besides, the TGI is more than 100000 nM in the test with PC-3 prostate, 327 nM with SK-MEL-2 melanoma, more than 100000 nM in the test with SNB-19 CNS and more than 100000 nM with TK-10 renal.
As to `CCN(CC)c1ccc2nc3c4ccccc4c(=NC(=O)c4ccccc4-c4c5ccc(N(CC)CC)cc5[o+]c5cc(N(CC)CC)ccc45)cc-3oc2c1`, the GI50 was 6150 nM in the test on A498 renal; 1880 nM in the test on HCT-116 colon; 2470 nM in the test with M14 melanoma; 15400 nM with NCI-H226 lung; 2190 nM in the test on NCI/ADR-RES ovarian; 1250 nM in the test with OVCAR-4 ovarian. For the same compound, the GI50 in the test with PC-3 prostate is 1970 nM; in the test on SK-MEL-2 melanoma, 3400 nM; in the test on SNB-19 CNS, 2300 nM; in the test on TK-10 renal, 10300 nM. Also, the TGI was 23500 nM in the test on A498 renal; more than 22400 nM in the test with HCT-116 colon; 38800 nM in the test with NCI-H226 lung; 10600 nM with NCI/ADR-RES ovarian; 2670 nM in the test on OVCAR-4 ovarian; more than 20600 nM with PC-3 prostate. Also, the TGI in the test with SK-MEL-2 melanoma was found to be 9150 nM; with SNB-19 CNS, 6640 nM; in the test with TK-10 renal, 31500 nM.
For the compound `CSc1ccc(C2=NN(C(=O)c3ccc(N)cc3)C(c3ccc(F)cc3)C2)cc1` (centres undefined), the GI50 is 12900 nM in the test with A498 renal; 1730 nM in the test on HCT-116 colon; 4240 nM with M14 melanoma; 11000 nM in the test with NCI-H226 lung; 16100 nM in the test on NCI/ADR-RES ovarian; 15000 nM in the test with OVCAR-4 ovarian. The GI50 in the test on PC-3 prostate was 4500 nM; with SK-MEL-2 melanoma, 21100 nM; in the test on SNB-19 CNS, 8940 nM; in the test with TK-10 renal, 7500 nM. Further, the TGI worked out at 27300 nM in the test on A498 renal; 3930 nM in the test with HCT-116 colon; 15100 nM in the test with M14 melanoma; 29600 nM with NCI-H226 lung; 38500 nM in the test with NCI/ADR-RES ovarian; 31900 nM with OVCAR-4 ovarian. Also, the TGI in the test with PC-3 prostate amounted to 19100 nM; in the test on SK-MEL-2 melanoma, 39900 nM; in the test on SNB-19 CNS, 22300 nM; in the test on TK-10 renal it was 26100 nM.
For `CCCCCc1c(C)[nH]c(/C=c2\[nH]/c(=C3/C=c4ccccc4=N3)cc2OC)c1C`, the GI50 with A498 renal is 94.4 nM; with HCT-116 colon it was 28 nM; in the test on M14 melanoma it was 29.5 nM; in the test on NCI-H226 lung, 77.7 nM; in the test on NCI/ADR-RES ovarian, 170 nM; with OVCAR-4 ovarian, 68.7 nM. Further, the GI50 is 54.4 nM with PC-3 prostate, 39.4 nM with SK-MEL-2 melanoma, 226 nM in the test with SNB-19 CNS and 50.4 nM in the test with TK-10 renal. Besides, the TGI with A498 renal was 1750 nM; in the test on HCT-116 colon, 1070 nM; in the test on M14 melanoma, 375 nM; in the test with NCI-H226 lung, 3950 nM; in the test with NCI/ADR-RES ovarian, 3720 nM; with OVCAR-4 ovarian it was 16300 nM. Besides, the TGI with PC-3 prostate is more than 100000 nM; in the test on SK-MEL-2 melanoma, 193 nM; in the test on SNB-19 CNS, 15400 nM; in the test on TK-10 renal, 716 nM.
Consider `Cc1cc2c(C(C)C)c(O)c(O)c(C=O)c2c(O)c1-c1c(C)cc2c(C(C)C)c(O)c(O)c(C=O)c2c1O` (tested in a mixture with another compound), for which the GI50 with A498 renal was 1290 nM; in the test on HCT-116 colon, 455 nM; with M14 melanoma, 1500 nM; in the test with NCI-H226 lung, 1390 nM; in the test on NCI/ADR-RES ovarian, 825 nM; in the test with OVCAR-4 ovarian, 1450 nM. Moreover, the GI50 with PC-3 prostate is 455 nM; in the test with SK-MEL-2 melanoma it was 1640 nM; with SNB-19 CNS it was 686 nM; in the test with TK-10 renal, 546 nM. In addition, the TGI in the test with A498 renal was determined as 2920 nM; in the test with HCT-116 colon, 1610 nM; in the test on M14 melanoma it was 3610 nM; in the test with NCI-H226 lung, 4950 nM; with NCI/ADR-RES ovarian, 2560 nM; in the test on OVCAR-4 ovarian, 9990 nM. Moreover, the TGI was 3420 nM with PC-3 prostate, 4070 nM in the test with SK-MEL-2 melanoma, 9470 nM in the test with SNB-19 CNS and 2930 nM in the test with TK-10 renal.
For the compound `ClC1=C(Cl)C(Cl)=C(Cl)C1=Cc1ccc(Cl)cc1`, the GI50 with A498 renal was 1600 nM; in the test on HCT-116 colon, 237 nM; with M14 melanoma, 287 nM; with NCI-H226 lung, 389 nM; with NCI/ADR-RES ovarian, 366 nM; in the test with OVCAR-4 ovarian, 818 nM. The GI50 was 876 nM in the test with PC-3 prostate, 2130 nM in the test on SK-MEL-2 melanoma, 1070 nM with SNB-19 CNS and 331 nM in the test with TK-10 renal. In addition, the TGI with A498 renal was 3170 nM; in the test with HCT-116 colon, 638 nM; with M14 melanoma, 904 nM; in the test on NCI-H226 lung it was 1860 nM; in the test on NCI/ADR-RES ovarian it was 2150 nM; in the test with OVCAR-4 ovarian, 2340 nM. The TGI in the test with PC-3 prostate came out at 6500 nM; with SK-MEL-2 melanoma, 4350 nM; in the test with SNB-19 CNS, 2420 nM; in the test with TK-10 renal it was 899 nM.
In the case of `O=C(/C=C/c1cccc(B(O)O)c1)c1cccc(B(O)O)c1`, the GI50 with A498 renal was 1520 nM; in the test on HCT-116 colon it was 376 nM; in the test with M14 melanoma it was 1510 nM; with NCI-H226 lung, 1910 nM; in the test on NCI/ADR-RES ovarian it was 1990 nM; with OVCAR-4 ovarian it was 3270 nM. The GI50 was 2530 nM in the test with PC-3 prostate, 2260 nM in the test with SK-MEL-2 melanoma, 2130 nM in the test on SNB-19 CNS and 2570 nM in the test on TK-10 renal. In addition, the TGI with A498 renal stood at 3500 nM; in the test with HCT-116 colon, 1570 nM; in the test with M14 melanoma it was 3330 nM; with NCI-H226 lung, 4140 nM; in the test on NCI/ADR-RES ovarian, 5470 nM; in the test with OVCAR-4 ovarian, 22200 nM. In addition, the TGI with PC-3 prostate turned out to be 11200 nM; in the test on SK-MEL-2 melanoma, 5200 nM; with SNB-19 CNS, 10400 nM; in the test with TK-10 renal, 6470 nM.
